Reference: patent publication US7217411B2, “CeSERT genes, proteins, and modulatory compounds” (Massachusetts Institute of Technology, priority 2000, dated 2007)
“And” between values parts separate entries of the source, which are not always exact repeats. Equal values may be shown once.

How the values were obtained:
MOD-5 CeSERT [1] = target: T1, MOD-5 CeSERT (Caenorhabditis elegans, UniProt Q963F3); experiment: MOD-5-mediated [^3H]serotonin uptake in HEK293 cell lines stably expressing MOD-5; conditions: for MOD-5-mediated uptake of radiolabeled neurotransmitter: 50 μM radiolabeled neurotransmitter vs 1 μM [^3H]serotonin; for transport of [^3H]serotonin by MOD-5, % of control: inhibitor 100 μM, [^3H]serotonin 50 nM
T1 sequence (Q963F3 1-671): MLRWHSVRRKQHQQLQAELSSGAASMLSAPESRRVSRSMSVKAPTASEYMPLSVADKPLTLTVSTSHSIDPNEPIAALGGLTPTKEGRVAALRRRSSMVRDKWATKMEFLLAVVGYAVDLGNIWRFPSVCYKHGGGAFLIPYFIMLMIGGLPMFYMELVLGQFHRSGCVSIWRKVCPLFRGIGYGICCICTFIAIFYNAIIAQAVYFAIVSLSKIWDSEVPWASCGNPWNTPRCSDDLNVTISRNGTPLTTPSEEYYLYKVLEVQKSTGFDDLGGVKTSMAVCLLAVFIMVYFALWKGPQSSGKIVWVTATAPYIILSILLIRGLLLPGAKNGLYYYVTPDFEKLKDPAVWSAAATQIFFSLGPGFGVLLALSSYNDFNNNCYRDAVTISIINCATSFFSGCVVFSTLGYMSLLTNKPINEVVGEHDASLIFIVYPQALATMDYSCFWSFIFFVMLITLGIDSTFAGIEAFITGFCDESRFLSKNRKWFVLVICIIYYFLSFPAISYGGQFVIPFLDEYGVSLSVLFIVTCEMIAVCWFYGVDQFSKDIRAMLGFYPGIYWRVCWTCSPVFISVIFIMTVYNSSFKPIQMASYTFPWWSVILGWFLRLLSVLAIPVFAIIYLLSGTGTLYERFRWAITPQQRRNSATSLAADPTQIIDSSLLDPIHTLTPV

MOD-5 CeSERT [2] = target: T1, MOD-5 CeSERT; experiment: cell-based
C. elegans [3] = experiment: egg-laying assay; type: in vivo
Description: Egg-laying assays were performed as described in Trent et al. (Genetics 104:619–647, 1983).

C. elegans [4] = experiment: fluoxetine-induced nose contraction; type: in vivo; conditions: 20 minutes
Source text: This conclusion is consistent with the conclusion by Choy and Thomas (1999) that fluoxetine-mediated nose contraction is serotonin-independent, although their hypothesis was based on studies of cat-1(e1111) mutants, which are defective in signaling by several biogenic amines (Duerr et al., J Neurosci 19:72–84, 1999), and cat-4 mutants, which we found to not completely lack serotonin (FIG. 1B).

C. elegans [5] = experiment: fluoxetine-induced paralysis (liquid locomotion assay); type: in vivo
Source text: (Five trials with 20 animals of each genotype at each concentration and the animals were scored for paralysis after ten minutes.) There was no difference in the time-course of paralysis at any of the concentrations tested. These observations indicate that fluoxetine-induced paralysis in C. elegans is not caused by the lack of serotonin uptake from synapses. Fluoxetine-treated wild-type and mod-5(n3314) mutant animals assumed a rigid body posture. […] Serotonin has been proposed to decrease excitatory input to the locomotory muscles (Nurrish et al., Neuron 24:231–242, 1999).
(§1) The plates were allowed to dry at room temperature with their lids removed for more than 2 hours.
Animals to be tested for sensitivity or insensitivity to serotonin in this liquid locomotion assay were picked as L4 animals 16–20 hours prior to assay and the plates were coded so that the experimenter was blind to the genotype of the animals to be scored. On the day of the assay, serotonin (as a creatinine sulphate salt) was dissolved just before use, in M9, at the required concentrations, and 200 μl were aliquoted to the wells of a flat-bottomed 96-well polystyrene plate. […] Fluoxetine-induced paralysis was scored in a similar manner at 10 min.

C. elegans [6] = experiment: enhanced slowing response (locomotory rate of food-deprived animals on bacteria); type: in vivo
Description: as §1
For the experiment shown in FIG. 2, well-fed and food-deprived animals were transferred to assay plates with or without a bacterial lawn, and the locomotory rate of each animal was recorded after 5 min; food-deprived animals were transferred to plates without bacteria 30 min prior to the transfer to locomotory assay plates as is also described in Sawin et al. (Neuron 26:619–623, 2000). At least 10 trials were performed for each genotype for each condition. For FIG. 2, each trial involved testing at least five animals for each of the conditions; a given animal was tested in only one condition. p values were calculated by comparing the combined data for the mutants from all of the separate trials under one set of conditions to the combined data for the wild-type animals assayed in parallel under the same conditions. In FIG. 2B the data were obtained from three well-fed animals of each ablation state, seven mock-ablated and food-deprived animals, and 12 NSM-ablated and food-deprived animals. In FIG. 2D, serotonin dose-response curves for wild-type and mod-5 mutant animals were generated from averages of five trials with 20 animals of each genotype at each concentration in which animals were scored for movement after 5 min.
Alternatively, nematodes to be tested in a non-liquid locomotion assay were picked as L4 animals 16–20 hours prior to the assay. Locomotion was assayed by placing the nematode on an assay plate (prepared by spreading a solution of E. coli strain HB101 in NGM agar in 5 cm plates, using a ring with an inner diameter of approximately 1 cm and an outer diameter of approximately 3.5 cm, and allowing the bacteria to grow 13–15 hours at 37 C.), observing each nematode under a dissecting microscope for 20 seconds, and counting the number of dorsal-ventral bends that occurred in the anterior portion of the body during the interval.
To assay locomotion rates in food-deprived animals, 5–15 animals were removed from plates with ample food, washed twice in S-basal buffer, and transferred to 5 cm NGM agar plates without bacteria. Food-deprived animals were incubated on these plates for 30 minutes at room temperature, and then were transferred to assay plates. Locomotion rates were assayed as described above for satiated animals.

C. elegans [7] = conditions: in vivo; cited from earlier work
dSERT = target: T2, dSERT (Drosophila melanogaster, UniProt P51905); conditions: inhibitor 200 μM, [^3H]serotonin 100 nM; cited from earlier work
T2 sequence (P51905 1-622): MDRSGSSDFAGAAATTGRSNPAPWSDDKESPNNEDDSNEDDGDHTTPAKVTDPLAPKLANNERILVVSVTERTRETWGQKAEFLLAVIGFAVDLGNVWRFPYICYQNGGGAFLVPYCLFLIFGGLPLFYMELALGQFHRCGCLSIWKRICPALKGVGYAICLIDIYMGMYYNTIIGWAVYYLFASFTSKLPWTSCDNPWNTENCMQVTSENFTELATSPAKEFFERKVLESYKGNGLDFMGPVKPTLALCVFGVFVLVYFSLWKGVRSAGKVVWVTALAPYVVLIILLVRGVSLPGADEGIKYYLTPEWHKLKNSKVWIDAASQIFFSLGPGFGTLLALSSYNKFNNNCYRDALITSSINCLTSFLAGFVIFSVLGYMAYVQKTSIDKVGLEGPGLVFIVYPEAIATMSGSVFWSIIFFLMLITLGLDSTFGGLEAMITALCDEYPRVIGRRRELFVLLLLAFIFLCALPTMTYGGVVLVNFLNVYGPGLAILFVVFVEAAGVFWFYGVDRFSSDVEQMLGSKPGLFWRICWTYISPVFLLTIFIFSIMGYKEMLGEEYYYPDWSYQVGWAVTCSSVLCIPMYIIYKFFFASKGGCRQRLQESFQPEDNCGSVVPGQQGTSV

C. elegans NSMs = experiment: serotonin uptake in vivo, anti-serotonin staining of NSMs; conditions: tph-1, 2 mM 5-HT for 2 hours, no fluoxetine
Description: For the anti-serotonin antisera experiments shown in FIG. 1B, mod-5(n823); cat-4 and cat-4; lin-15(n765ts) double mutants were grown at 20° C., and animals of both genotypes were incubated separately on plates containing 2 mM serotonin and bacteria (see Sawin et al. (Neuron 26:619–623, 2000) for details concerning how plates were prepared) for two hours and then incubated on plates with bacteria but without serotonin for 30 min. Controls without exogenous serotonin were similarly treated in parallel. Prior to fixation, mod-5(n823); cat-4 and cat-4; lin-15 double mutants preincubated on serotonin-containing plates were combined, and mod-5(n823); cat-4 and cat-4; lin-15 double mutants preincubated on control plates were combined. Serotonin staining was performed as described by Desai et al. (Nature 336:638–646, 1988) using affinity-purified rabbit polyclonal anti-serotonin antisera. The cat-4; lin-15 mutants were not defective in the uptake of serotonin and served as internal controls for each staining reaction. These animals could be distinguished from the test animals by the Multivulva phenotype caused by lin-15.

other SERTs = conditions: read-out: Km range of serotonin transport reported for other SERTs; cited from earlier work
[8] = substrate: NCCc1c[nH]c2ccc(O)cc12; experiment: cells, lysate or membranes; conditions: other: HEK293 GFPMOD-5 cells, Eadie-Hoftsee transformation; pH 7.4; 37.0 °C

NCCCC(=O)O [GABA, gamma-aminobutyric acid]
MOD-5-mediated uptake of radiolabeled neurotransmitter (MOD-5 CeSERT [1]): inefficient at translocating

NC[C@H](O)c1ccc(O)c(O)c1 [NE, norepinephrine]
MOD-5-mediated uptake of radiolabeled neurotransmitter (MOD-5 CeSERT [1]): inefficient at translocating

COC(=O)[C@H]1[C@@H](OC(=O)c2ccccc2)C[C@@H]2CC[C@H]1N2C [cocaine]
Ki (MOD-5 CeSERT [2]): 4080 ± 349 nM

NCCc1ccc(O)c(O)c1 [dopamine]
MOD-5-mediated uptake of radiolabeled neurotransmitter (MOD-5 CeSERT [1]): inefficient at translocating

CNCCC(Oc1ccc(C(F)(F)F)cc1)c1ccccc1 (stereo not drawn) [fluoxetine]
stimulation of egg-laying (C. elegans [3]; cat-4 mutants): completely resistant
stimulation of egg-laying (C. elegans [3]; egl-1(n1084) mutants (lack HSNs)): no effect on egg-laying
stimulation of egg-laying (C. elegans [3]; mod-5(n3314) mutants, 1.5 mM fluoxetine): stimulated to lay eggs to nearly the same extent as was the wild-type
stimulation of egg-laying (C. elegans [3]; tph-1 mutants): partially resistant
proportion of animals with contracted noses (C. elegans [4]; tph-1, 2.9 mM): 100%
proportion of animals with contracted noses (C. elegans [4]; wild-type and mod-5(n3314), 1.5 mM): approximately 25%
proportion of animals with contracted noses (C. elegans [4]; wild-type and mod-5(n3314), 2.9 mM): 100%
paralysis induced by fluoxetine treatment (C. elegans [5]; mod-5(n3314) mutants vs wild-type, scored after ten minutes): retained wild-type sensitivity to fluoxetine
paralysis induced by fluoxetine treatment (C. elegans [5]; tph-1 mutants vs wild-type): paralyzed tph-1 mutants to a similar extent as wild-type animals
potentiation of the enhanced slowing response (C. elegans [6]; bas-1, cat-4 mutants preincubated with 2 mM serotonin): exhibited a potentiated enhanced slowing response
potentiation of the enhanced slowing response (C. elegans [6]; mod-1(ok103) mutants): potentiated by fluoxetine
potentiation of the enhanced slowing response (C. elegans [6]; mod-5(n3314), mod-1(ok103) double mutants): completely resistant
potentiation of the enhanced slowing response (C. elegans [6]; wild-type, food-deprived in 0.22 mM fluoxetine): slow their locomotory rate more
concentrations leading to paralysis, contraction of nose muscles, stimulation of egg-laying (C. elegans [7]): 0.25–1 mg/ml and 0.7–2.9 mM

N[C@@H](CCC(=O)O)C(=O)O [glutamate]
MOD-5-mediated uptake of radiolabeled neurotransmitter (MOD-5 CeSERT [1]): inefficient at translocating

NCCc1c[nH]cn1 [histamine]
MOD-5-mediated uptake of radiolabeled neurotransmitter (MOD-5 CeSERT [1]): inefficient at translocating

CN(C)CCCN1c2ccccc2CCc2ccccc21 [imipramine]
Ki (MOD-5 CeSERT [2]): 89 ± 58 nM

NCC(O)c1ccc(O)cc1 (stereo not drawn) [octopamine]
dSERT-mediated transport of [^3H]serotonin, % of control (dSERT): 82%±15%
transport of [^3H]serotonin by MOD-5, % of control (MOD-5 CeSERT [1]): 86%±12%

NCCc1c[nH]c2ccc(O)cc12 [serotonin]
% Serotonin-positive NSMs (C. elegans NSMs; mod-5(n3314)): 0%
% Serotonin-positive NSMs (C. elegans NSMs): 98%
Vmax of MOD-5-mediated [^3H]serotonin transport (MOD-5 CeSERT [1]; HEK293 GFPMOD-5 cells): 8.31×10^−9 nmoles per cell per min
Km (other SERTs): 0.28 to 0.63 µM

NCCc1ccc(O)cc1 [tyramine]
dSERT-mediated transport of [^3H]serotonin, % of control (dSERT): 95%±15%
transport of [^3H]serotonin by MOD-5, % of control (MOD-5 CeSERT [1]): 54%±10%

B1: MOD-5 CeSERT (Caenorhabditis elegans) (protein)
chain: MLRWHSVRRKQHQQLQAELSSGAASMLSAPESRRVSRSMSVKAPTASEYMPLSVADKPLTLTVSTSHSIDPNEPIAALGGLTPTKEGRVAALRRRSSMVRDKWATKMEFLLAVVGYAVDLGNIWRFPSVCYKHGGGAFLIPYFIMLMIGGLPMFYMELVLGQFHRSGCVSIWRKVCPLFRGIGYGICCICTFIAIFYNAIIAQAVYFAIVSLSKIWDSEVPWASCGNPWNTPRCSDDLNVTISRNGTPLTTPSEEYYLYKVLEVQKSTGFDDLGGVKTSMAVCLLAVFIMVYFALWKGPQSSGKIVWVTATAPYIILSILLIRGLLLPGAKNGLYYYVTPDFEKLKDPAVWSAAATQIFFSLGPGFGVLLALSSYNDFNNNCYRDAVTISIINCATSFFSGCVVFSTLGYMSLLTNKPINEVVGEHDASLIFIVYPQALATMDYSCFWSFIFFVMLITLGIDSTFAGIEAFITGFCDESRFLSKNRKWFVLVICIIYYFLSFPAISYGGQFVIPFLDEYGVSLSVLFIVTCEMIAVCWFYGVDQFSKDIRAMLGFYPGIYWRVCWTCSPVFISVIFIMTVYNSSFKPIQMASYTFPWWSVILGWFLRLLSVLAIPVFAIIYLLSGTGTLYERFRWAITPQQRRNSATSLAADPTQIIDSSLLDPIHTLTPV
Km [8]: 0.15 ± 0.008 µM
